# Where “and” joins values, the source holds several entries; their conditions need not be identical. Identical values can stand only once.
# Assays:
# [1] = test system: CTL cells (CD45^+CD8^+ T cells) in tumor-infiltrating lymphocytes; assay: Example 2: flow cytometry, percentage of CTL cells in TILs; type: in vivo, Mus musculus
# Procedure: (§1) Mice were sacrificed by CO2 euthanasia at the end of the study duration, and the connective tissue around tumor was resected. The tumor samples were then weighed and cut equally into three sections if the tumor weight over 400 mg. The tumor tissue was prepared for the isolation of tumor-infiltrating lymphocytes (TILs). The rest of one section was fixed in 10% formaldehyde and embedded in paraffin; the other was stored at a temperature below −70° C.
# (§2) The tumor samples were dissected into smaller fragments using scalpels and then digested with a cocktail of collagenase, DNase I, and Hyaluronidase (Collagenase #C5138, DNase I #D5025, Hyaluronidase #H6254, SigmaAldrich) for at least 2 hours.
# (§3) Cells were stained with the fluorescently conjugated surface antibodies and incubated for 30 minutes at 4° C., and then resuspended in staining buffer for flow cytometric analysis. Flow cytometry was done using a Navios EX Flow Cytometer (Beckman Coulter). Data were analyzed using the Kaluza Analysis Software (Beckman Coulter).
# [2] = test system: preclinical models of T-ALL; conditions: in vitro and in vivo; references 25, 26; cited from earlier work
# [3] = test system: Dendritic cells in tumor-infiltrating lymphocytes; assay: Example 2: flow cytometry, percentage of Dendritic cells in TILs; type: in vivo, Mus musculus; conditions: individual animals and Mean
# Procedure: as §1, §2, §3
# [4] = G2: OBI-3424 (0.3 mg/kg), 0.3 mg/kg
# [5] = G2: OBI-3424 (0.3 mg/kg), 0.3 mg/kg, mean
# [6] = G3: OBI-3424 (1 mg/kg), 1 mg/kg
# [7] = G3: OBI-3424 (1 mg/kg), 1 mg/kg, mean
smiles,measurement,setting,value
"C[C@H](OP(=O)(N1CC1)N1CC1)c1ccc([N+](=O)[O-])c(Oc2cccc(C(=O)N(C)C)c2)c1 [OBI-3424, (S)-1-(3-(3-N,N-dimethylaminocarbonyl)phenoxyl-4-mtrophenyl)-1-ethyl-N,N′-bis(ethylene)phosphoramidate]",IFN-γ^+ CTL cells (CD45^+ CD8^+ IFN-γ^+) Total %,"[1]; G2: 0.3 mg/kg, individual mice",0.18% and 0.23% and 0.20% and 0.13% and 0.31% and 0.15%
same,PD-1^+ CTL cells (CD45^+CD8^+ PD-1^+) CTL Gated %,"[1]; G2: 0.3 mg/kg, individual mice",95.86% and 68.60% and 72.47% and 49.67% and 96.18% and 73.00%
same,PD-1^+ CTL cells (CD45^+CD8^+ PD-1^+) Cell count (×10^5),"[1]; G2: 0.3 mg/kg, individual mice",15.31 ×10^5 and 37.59 ×10^5 and 124.42 ×10^5 and 4.84 ×10^5 and 63.74 ×10^5 and 9.24 ×10^5
same,PD-1^+ CTL cells (CD45^+CD8^+ PD-1^+) Total %,"[1]; G2: 0.3 mg/kg, individual mice",7.87% and 18.38% and 23.04% and 22.62% and 25.86% and 12.75%
same,CD25^+ CTL cells (CD45^+ CD8^+CD25^+) Cell count (×10^5),"[1]; G3: 1 mg/kg, group mean",1.33 ×10^5
same,CD25^+ CTL cells (CD45^+CD8^+ CD25^+) CTL Gated %,"[1]; G3: 1 mg/kg, group mean",5.25%
same,CD25^+ CTL cells (CD45^+CD8^+ CD25^+) Total %,"[1]; G3: 1 mg/kg, group mean",1.71%
same,CD69^+ CTL cells (CD45^+ CD8^+CD69^+) CTL Gated %,"[1]; G3: 1 mg/kg, group mean",71.92%
same,CD69^+ CTL cells (CD45^+ CD8^+CD69^+) Cell count (×10^5),"[1]; G3: 1 mg/kg, group mean",18.65 ×10^5
same,CD69^+ CTL cells (CD45^+ CD8^+CD69^+) Total %,"[1]; G3: 1 mg/kg, group mean",25.02%
same,CTL cells (CD45^+CD8^+) CD45^+ Gated %,"[1]; G3: 1 mg/kg, group mean",55.81%
same,CTL cells (CD45^+CD8^+) Cell count (×10^5),"[1]; G3: 1 mg/kg, group mean",25.42 ×10^5
same,CTL cells (CD45^+CD8^+) Total %,"[1]; G3: 1 mg/kg, group mean",33.50%
same,Granzyme B^+ CTL cells (CD45^+ CD8^+GrB+) CTL Gated %,"[1]; G3: 1 mg/kg, group mean",88.17%
same,Granzyme B^+ CTL cells (CD45^+ CD8^+GrB+) Cell count (×10^5),"[1]; G3: 1 mg/kg, group mean",23.13 ×10^5
same,Granzyme B^+ CTL cells (CD45^+ CD8^+GrB+) Total %,"[1]; G3: 1 mg/kg, group mean",30.40%
same,IFN-γ^+ CTL cells (CD45^+ CD8^+ IFN-γ^+) CTL Gated %,"[1]; G3: 1 mg/kg, group mean",0.63%
same,IFN-γ^+ CTL cells (CD45^+ CD8^+ IFN-γ^+) Cell count (×10^5),"[1]; G3: 1 mg/kg, group mean",0.15 ×10^5
same,IFN-γ^+ CTL cells (CD45^+ CD8^+ IFN-γ^+) Total %,"[1]; G3: 1 mg/kg, group mean",0.21%
same,PD-1^+ CTL cells (CD45^+CD8^+ PD-1^+) CTL Gated %,"[1]; G3: 1 mg/kg, group mean",75.93%
same,PD-1^+ CTL cells (CD45^+CD8^+ PD-1^+) Cell count (×10^5),"[1]; G3: 1 mg/kg, group mean",19.17 ×10^5
same,PD-1^+ CTL cells (CD45^+CD8^+ PD-1^+) Total %,"[1]; G3: 1 mg/kg, group mean",24.78%
same,CD25^+ CTL cells (CD45^+ CD8^+CD25^+) Cell count (×10^5),"[1]; G3: 1 mg/kg, individual mice",0.43 ×10^5 and 1.29 ×10^5 and 0.89 ×10^5 and 1.55 ×10^5 and 1.91 ×10^5 and 1.90 ×10^5
same,CD25^+ CTL cells (CD45^+CD8^+ CD25^+) CTL Gated %,"[1]; G3: 1 mg/kg, individual mice",3.38% and 2.85% and 4.07% and 7.29% and 6.05% and 7.84%
same,CD25^+ CTL cells (CD45^+CD8^+ CD25^+) Total %,"[1]; G3: 1 mg/kg, individual mice",1.49% and 1.02% and 1.26% and 1.57% and 2.57% and 2.34%
same,CD69^+ CTL cells (CD45^+ CD8^+CD69^+) CTL Gated %,"[1]; G3: 1 mg/kg, individual mice",80.80% and 70.50% and 83.69% and 59.32% and 76.33% and 60.89%
same,CD69^+ CTL cells (CD45^+ CD8^+CD69^+) Cell count (×10^5),"[1]; G3: 1 mg/kg, individual mice",10.34 ×10^5 and 31.84 ×10^5 and 18.33 ×10^5 and 12.61 ×10^5 and 24.09 ×10^5 and 14.69 ×10^5
same,CD69^+ CTL cells (CD45^+ CD8^+CD69^+) Total %,"[1]; G3: 1 mg/kg, individual mice",35.67% and 25.23% and 25.96% and 12.76% and 32.38% and 18.14%
same,CTL cells (CD45^+CD8^+) CD45^+ Gated %,"[1]; G3: 1 mg/kg, individual mice",66.02% and 53.39% and 62.97% and 38.03% and 65.33% and 49.11%
same,CTL cells (CD45^+CD8^+) Cell count (×10^5),"[1]; G3: 1 mg/kg, individual mice",12.68 ×10^5 and 40.30 ×10^5 and 21.83 ×10^5 and 22.61 ×10^5 and 32.02 ×10^5 and 23.10 ×10^5
same,CTL cells (CD45^+CD8^+) Total %,"[1]; G3: 1 mg/kg, individual mice",31.93% and 30.92% and 22.88% and 43.04% and 28.52%
same,Granzyme B^+ CTL cells (CD45^+ CD8^+GrB+) CTL Gated %,"[1]; G3: 1 mg/kg, individual mice",90.46% and 99.18% and 89.16% and 96.01% and 95.94% and 58.25%
same,Granzyme B^+ CTL cells (CD45^+ CD8^+GrB+) Cell count (×10^5),"[1]; G3: 1 mg/kg, individual mice",11.76 ×10^5 and 39.25 ×10^5 and 20.44 ×10^5 and 21.59 ×10^5 and 31.75 ×10^5 and 14.00 ×10^5
same,Granzyme B^+ CTL cells (CD45^+ CD8^+GrB+) Total %,"[1]; G3: 1 mg/kg, individual mice",40.55% and 31.10% and 28.95% and 21.85% and 17.29%
same,IFN-γ^+ CTL cells (CD45^+ CD8^+ IFN-γ^+) CTL Gated %,"[1]; G3: 1 mg/kg, individual mice",0.87% and 0.63% (2×) and 0.85% and 0.20% and 0.61%
same,IFN-γ^+ CTL cells (CD45^+ CD8^+ IFN-γ^+) Cell count (×10^5),"[1]; G3: 1 mg/kg, individual mice",0.11 ×10^5 and 0.25 ×10^5 and 0.20 ×10^5 and 0.1 ×10^5 and 0.07 ×10^5 and 0.15 ×10^5
same,IFN-γ^+ CTL cells (CD45^+ CD8^+ IFN-γ^+) Total %,"[1]; G3: 1 mg/kg, individual mice",0.39% and 0.20% and 0.28% and 0.14% and 0.09% and 0.18%
same,PD-1^+ CTL cells (CD45^+CD8^+ PD-1^+) CTL Gated %,"[1]; G3: 1 mg/kg, individual mice",58.64% and 62.98% and 80.96% and 86.30% and 72.97% and 93.75%
same,PD-1^+ CTL cells (CD45^+CD8^+ PD-1^+) Cell count (×10^5),"[1]; G3: 1 mg/kg, individual mice",7.44 ×10^5 and 25.38 ×10^5 and 17.68 ×10^5 and 19.51 ×10^5 and 23.37 ×10^5 and 21.66 ×10^5
same,PD-1^+ CTL cells (CD45^+CD8^+ PD-1^+) Total %,"[1]; G3: 1 mg/kg, individual mice",25.64% and 20.11% and 25.04% and 19.75% and 31.41% and 26.74%
same,efficacy against preclinical models of T-ALL (in words),[2],potent efficacy
same,CD86^+ DC cells (CD45^+CD11c^+CD86^+) Cell count,[3]; [4],6.36 ×10^5 and 14.34 ×10^5 and 27.59 ×10^5 and 1.25 ×10^5 and 15.63 ×10^5 and 4.71 ×10^5
same,CD86^+ DC cells (CD45^+CD11c^+CD86^+) Total %,[3]; [4],3.27% and 7.01% and 5.11% and 5.82% and 6.34% and 6.50%
same,CD91^+ DC cells (CD45^+CD11c^+CD91^+) Cell count,[3]; [4],0.18 ×10^5 and 0.16 ×10^5 and 0.54 ×10^5 and 0.02 ×10^5 and 0.22 ×10^5 and 0.04 ×10^5
same,CD91^+ DC cells (CD45^+CD11c^+CD91^+) Total %,[3]; [4],0.09% (2×) and 0.08% (2×) and 0.10% and 0.06%
same,DC cells (CD45^+CD11c^+) CD45+ Gated %,[3]; [4],32.90% and 30.81% and 44.83% and 19.60% and 24.30% and 36.70%
same,DC cells (CD45^+CD11c^+) Cell count,[3]; [4],10.62 ×10^5 and 23.35 ×10^5 and 105.79 ×10^5 and 2.74 ×10^5 and 25.44 ×10^5 and 9.18 ×10^5
same,DC cells (CD45^+CD11c^+) Total %,[3]; [4],5.46% and 11.42% and 19.59% and 12.80% and 10.32% and 12.66%
same,CD86^+ DC cells (CD45^+CD11c^+CD86^+) Cell count,[3]; [5],11.65 ×10^5
same,CD86^+ DC cells (CD45^+CD11c^+CD86^+) Total %,[3]; [5],5.68%
same,CD91^+ DC cells (CD45^+CD11c^+CD91^+) Cell count,[3]; [5],0.19 ×10^5
same,CD91^+ DC cells (CD45^+CD11c^+CD91^+) Total %,[3]; [5],0.08%
same,DC cells (CD45^+CD11c^+) CD45+ Gated %,[3]; [5],31.52%
same,DC cells (CD45^+CD11c^+) Cell count,[3]; [5],29.52 ×10^5
same,DC cells (CD45^+CD11c^+) Total %,[3]; [5],12.04%
same,CD86^+ DC cells (CD45^+CD11c^+CD86^+) Cell count,[3]; [6],2.23 ×10^5 and 10.59 ×10^5 and 5.46 ×10^5 and 6.73 ×10^5 and 6.98 ×10^5 and 7.11 ×10^5
same,CD86^+ DC cells (CD45^+CD11c^+CD86^+) Total %,[3]; [6],7.68% and 8.39% and 7.73% and 6.81% and 9.38% and 8.78%
same,CD91^+ DC cells (CD45^+CD11c^+CD91^+) Cell count,[3]; [6],0.04 ×10^5 (2×) and 0.10 ×10^5 and 0.06 ×10^5 (2×) and 0.08 ×10^5
same,CD91^+ DC cells (CD45^+CD11c^+CD91^+) Total %,[3]; [6],0.14% and 0.08% (2×) and 0.09% and 0.06% and 0.07%
same,DC cells (CD45^+CD11c^+) CD45+ Gated %,[3]; [6],23.54% and 31.09% and 41.01% and 19.89% and 35.18% and 28.58%
same,DC cells (CD45^+CD11c^+) Cell count,[3]; [6],4.40 ×10^5 and 23.57 ×10^5 and 13.84 ×10^5 and 12.22 ×10^5 and 16.67 ×10^5 and 14.15 ×10^5
same,DC cells (CD45^+CD11c^+) Total %,[3]; [6],15.16% and 18.68% and 19.60% and 12.37% and 22.41% and 17.47%
same,CD86^+ DC cells (CD45^+CD11c^+CD86^+) Cell count,[3]; [7],6.52 ×10^5
same,CD86^+ DC cells (CD45^+CD11c^+CD86^+) Total %,[3]; [7],8.13%
same,CD91^+ DC cells (CD45^+CD11c^+CD91^+) Cell count,[3]; [7],0.06 ×10^5
same,CD91^+ DC cells (CD45^+CD11c^+CD91^+) Total %,[3]; [7],0.09%
same,DC cells (CD45^+CD11c^+) CD45+ Gated %,[3]; [7],29.88%
same,DC cells (CD45^+CD11c^+) Cell count,[3]; [7],14.14 ×10^5
same,DC cells (CD45^+CD11c^+) Total %,[3]; [7],17.62%
